Results on 28 molecules are retold here after US8877707B2, “Inhibitors of HCV NS5A” (Presidio Pharmaceuticals, Inc., priority 2010, dated 2014).

For the experiment, the system named is HCV genotype 1b replicon in Huh 7 cells. In words: HCV replicon assay (1b_Huh-Luc/Neo-ET cell line, luciferase readout). The note with it: Hepatitis C virus; Table 1; genotype 1b replicon, Huh 7 cells, 72 h, luciferase; read-out: Inhibition of HCV genotype 1b. Format: cell-based. The method in brief:
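Replicon level was read as luciferase signal after 72 h compound exposure, triplicate wells, starting the day after cells were plated. Cell line: 1b_Huh-Luc/Neo-ET. Values normalised to control as percent, and EC50 fitted with a variable-slope sigmoid; determinations repeated.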
A general note: In antiviral work, replicon cells carry a viral genome segment that copies itself.

Regarding `COC(=O)N[C@H](C(=O)N1CCC[C@H]1c1ncc(-c2ccc(-c3ccc4nc(-c5c[nH]c([C@@H]6CCCN6C(=O)[C@H](NC(=O)OC)c6ccccc6)n5)ccc4c3)cc2)[nH]1)C(C)C` [compound 103], the EC50 was less than 1 nM. Take `COC(=O)N[C@H](C(=O)N1CCC[C@H]1c1ncc(-c2ccc(-c3ccc4cc(-c5c[nH]c([C@@H]6CCCN6C(=O)[C@@H](NC(=O)OC)C6CCOCC6)n5)ccc4c3)c(C)c2)[nH]1)C(C)C` [compound 104]: the EC50 was less than 1 nM. Consider `COC(=O)N[C@H](C(=O)N1CCC[C@H]1c1ncc(-c2ccc(-c3ccc4cc(-c5c[nH]c([C@@H]6CCCN6C(=O)[C@H](NC(=O)OC)c6ccccc6)n5)ccc4c3)cc2)[nH]1)C1CCOCC1` [compound 105], for which the EC50 is less than 1 nM. For the molecule `COC(=O)N[C@H](C(=O)N1CCC[C@H]1c1ncc(-c2ccc(-c3ccc4cc(-c5c[nH]c([C@@H]6CCCN6C(=O)[C@H](NC(=O)OC)c6ccccc6)n5)ccc4c3)c(F)c2)[nH]1)C1CCOCC1` [compound 106], the EC50 is less than 1 nM. With `COC(=O)N[C@H](C(=O)N1CCC[C@H]1c1nc(-c2ccc3nc(-c4ccc(-c5cnc([C@@H]6CCCN6C(=O)[C@H](NC(=O)OC)c6ccccc6)[nH]5)cc4F)ccc3c2)c[nH]1)C(C)C` [compound 107], the EC50 is less than 1 nM. Under `COC(=O)N[C@H](C(=O)N1CCC[C@H]1c1nc(-c2ccc3nc(-c4ccc(-c5cnc([C@@H]6CCCN6C(=O)[C@@H](NC(=O)OC)C6CCOCC6)[nH]5)c(F)c4)ccc3c2)c[nH]1)C1CCOCC1` [compound 108] stands less than 1 nM; under `COC(=O)N[C@@H](C(=O)N1CCC[C@H]1c1nc(-c2ccc3nc(-c4ccc(-c5cnc([C@@H]6CCCN6C(=O)[C@H](NC(=O)OC)c6ccccc6)[nH]5)c(F)c4)ccc3c2)c[nH]1)c1ccccc1` [compound 109], less than 1 nM; under `COC(=O)N[C@H](C(=O)N1CCC[C@H]1c1nc(-c2ccc3cc(-c4ccc(-c5cnc([C@@H]6CCCN6C(=O)[C@H](NC(=O)OC)c6ccsc6)[nH]5)cc4)ccc3c2)c[nH]1)C1CCOCC1` [compound 110], less than 1 nM. Then `COC(=O)N[C@H](C(=O)N1CCC[C@H]1c1nc(-c2ccc3cc(-c4ccc(-c5cnc([C@@H]6CCCN6C(=O)[C@H](NC(=O)OC)c6ccc(F)cc6)[nH]5)cc4)ccc3c2)c[nH]1)C1CCOCC1` [compound 111], with less than 1 nM; and `COC(=O)N[C@H](C(=O)N1CCC[C@H]1c1nc(-c2ccc3cc(-c4ccc(-c5cnc([C@@H]6CCCN6C(=O)[C@@H](NC(=O)OC6CCOCC6)c6ccccc6)[nH]5)cc4)ccc3c2)c[nH]1)C1CCOCC1` [compound 112], with less than 1 nM. For the molecule `COC(=O)N[C@H](C(=O)N1CCC[C@H]1c1nc(-c2ccc3cc(-c4ccc(-c5cnc([C@@H]6CCCN6C(=O)[C@H](NC(=O)OC6CCOCC6)c6ccccc6)[nH]5)cc4)ccc3c2)c[nH]1)C1CCOCC1` [compound 113], the EC50 is less than 1 nM. Regarding `COC(=O)N[C@H](C(=O)N1CCC[C@H]1c1nc(-c2ccc3cc(-c4ccc(-c5cnc([C@@H]6CCCN6C(=O)[C@H](NC(=O)OC)c6ccccc6)[nH]5)cc4F)ccc3c2)c[nH]1)C1CCOCC1` [compound 114], the EC50 is less than 1 nM. With `COC(=O)N[C@H](C(=O)N1CCC[C@H]1c1ncc(-c2ccc3cc(-c4ccc(-c5cnc([C@@H]6CCCN6C(=O)[C@H](NC(=O)OC)c6ccccc6)[nH]5)cc4)ccc3c2)[nH]1)[C@@H](C)OC` [compound 115], the EC50 is less than 1 nM. In the case of `COC(=O)N[C@H](C(=O)N1CCC[C@H]1c1ncc(-c2ccc3cc(-c4ccc(-c5cnc([C@@H]6CCCN6C(=O)[C@@H](c6ccccc6)N6CCOCC6)[nH]5)cc4)ccc3c2)[nH]1)C(C)C` [compound 116], the EC50 is less than 1 nM.

Consider `COC(=O)N[C@H](C(=O)N1CCC[C@H]1c1ncc(-c2ccc3cc(-c4ccc(-c5cnc([C@@H]6CCCN6C(=O)[C@H](NC(=O)OC6CCOCC6)c6ccccc6)[nH]5)cc4)ncc3c2)[nH]1)C1CCOCC1` [compound 117], for which the EC50 was less than 1 nM. `COC(=O)N[C@H](C(=O)N1CCC[C@H]1c1ncc(-c2ccc3cc(-c4ccc(-c5cnc([C@@H]6CCCN6C(=O)[C@H](NC(=O)OC(C)(C)C)c6ccccc6)[nH]5)cc4)ncc3c2)[nH]1)C1CCOCC1` [compound 118]: the EC50 is less than 1 nM.

As for `COC(=O)N[C@H](C(=O)N1CCC[C@H]1c1ncc(-c2ccc(-c3ccc4cc(-c5cnc([C@@H]6CCCN6C(=O)[C@H](NC(=O)OC)c6ccccc6)[nH]5)ccc4n3)c(F)c2)[nH]1)C(C)C` [compound 119], the EC50 is less than 1 nM.

`COC(=O)N[C@H](C(=O)N1CCC[C@H]1c1ncc(-c2ccc(-c3ccc4cc(-c5cnc([C@@H]6CCCN6C(=O)[C@@H](NC(=O)OC)C6CCOCC6)[nH]5)ccc4n3)c(F)c2)[nH]1)C(C)C` [compound 120]: the EC50 is less than 1 nM. Under `COC(=O)N[C@H](C(=O)N1CCC[C@H]1c1ncc(-c2ccc(-c3ccc4cc(-c5cnc([C@@H]6CCCN6C(=O)[C@H](NC(=O)OC6CCOCC6)c6ccccc6)[nH]5)ccc4n3)c(F)c2)[nH]1)C(C)C` [compound 121] stands less than 1 nM; under `COC(=O)N[C@H](C(=O)N1CCC[C@H]1c1ncc(-c2ccc(-c3ccc4cc(-c5cnc([C@@H]6CCCN6C(=O)[C@H](NC(=O)OC(C)(C)C)c6ccccc6)[nH]5)ccc4n3)c(F)c2)[nH]1)C(C)C` [compound 122], less than 1 nM; under `COC(=O)N[C@H](C(=O)N1CCC[C@H]1c1ncc(-c2ccc(-c3ccc4cc(-c5cnc([C@@H]6CCCN6C(=O)[C@@H](NC(=O)OC)C6CCOCC6)[nH]5)ccc4n3)cc2F)[nH]1)C(C)C` [compound 123], less than 1 nM. With `COC(=O)N[C@H](C(=O)N1CCC[C@H]1c1ncc(-c2ccc(-c3ccc4cc(-c5cnc([C@@H]6CCCN6C(=O)[C@H](NC(=O)OC)c6ccccc6)[nH]5)ccc4n3)cc2F)[nH]1)C(C)C` [compound 124], the EC50 is less than 1 nM. Regarding `COC(=O)N[C@H](C(=O)N1CCC[C@H]1c1ncc(-c2ccc(-c3ccc4cc(-c5cnc([C@@H]6CCCN6C(=O)[C@H](NC(=O)OC6CCOCC6)c6ccccc6)[nH]5)ccc4n3)cc2F)[nH]1)C(C)C` [compound 125], the EC50 was less than 1 nM. Consider `COC(=O)N[C@H](C(=O)N1CCC[C@H]1c1ncc(-c2ccc3nc(-c4ccc(-c5cnc([C@@H]6CCCN6C(=O)[C@@H](NC(=O)OC)C(C)C)[nH]5)c(F)c4)ccc3c2)[nH]1)C(C)C` [compound 126], for which the EC50 is less than 1 nM. Then `COC(=O)N[C@H](C(=O)N1CCC[C@H]1c1ncc(-c2ccc3cc(-c4ccc(-c5cnc([C@@H]6CCCN6C(=O)[C@H](NC(=O)OC)c6ccccc6)[nH]5)c(F)c4)ncc3c2)[nH]1)C1CCOCC1` [compound 127], with less than 1 nM.

Take `COC(=O)N[C@H](C(=O)N1CCC[C@H]1c1ncc(-c2ccc(-c3cc4ccc(-c5cnc([C@@H]6CCCN6C(=O)[C@@H](NC(=O)OC)C6CCOCC6)[nH]5)cc4cn3)cc2F)[nH]1)C(C)C` [compound 128]: the EC50 is less than 1 nM. Under `COC(=O)N[C@H](C(=O)N1CCC[C@H]1c1ncc(-c2ccc(-c3ccc4cc(-c5cnc([C@@H]6CCCN6C(=O)[C@H](NC(=O)OC)c6ccccc6)[nH]5)ccc4n3)c(F)c2)[nH]1)C1CCOCC1` [compound 129] stands less than 1 nM; under `COC(=O)N[C@H](C(=O)N1CCC[C@H]1c1ncc(-c2cccc(-c3cccc4cc(-c5cnc([C@@H]6CCCN6C(=O)[C@@H](NC(=O)OC)C(C)C)[nH]5)ccc34)c2)[nH]1)C(C)C` [compound 130], less than 1 nM.
